Reference: PubChem BioAssay (NCI)
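96-well plates; 48 h exposure; 5 concentrations. Endpoints by linear interpolation between flanking doses. Not reached: highest tested concentration assigned. The concentration for full growth arrest is given as TGI.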

Experiments:
Experiment in all cases: inhibition of tumour cell growth, NCI panel, 48 h
DU-145 prostate = tested on: DU-145 prostate
SF-295 CNS = tested on: SF-295 CNS
MDA-N = tested on: MDA-N
HT29 colon = tested on: HT29 colon
UACC-62 melanoma = tested on: UACC-62 melanoma
A498 renal = tested on: A498 renal
UACC-257 melanoma = tested on: UACC-257 melanoma
SK-MEL-5 melanoma = tested on: SK-MEL-5 melanoma
SNB-19 CNS = tested on: SNB-19 CNS
K-562 leukemia = tested on: K-562 leukemia
HOP-62 NSCLC = tested on: HOP-62 NSCLC
HCT-116 colon = tested on: HCT-116 colon
SNB-75 CNS = tested on: SNB-75 CNS
CAKI-1 renal = tested on: CAKI-1 renal
SR leukemia = tested on: SR leukemia
SK-OV-3 ovarian = tested on: SK-OV-3 ovarian
786-0 renal = tested on: 786-0 renal
SN12C renal = tested on: SN12C renal
A549 NSCLC = tested on: A549 NSCLC
COLO 205 colon = tested on: COLO 205 colon
ACHN renal = tested on: ACHN renal
SF-268 CNS = tested on: SF-268 CNS
MOLT-4 leukemia = tested on: MOLT-4 leukemia
HL-60(TB) leukemia = tested on: HL-60(TB) leukemia
IGROV1 ovarian = tested on: IGROV1 ovarian
MDA-MB-231 breast = tested on: MDA-MB-231 breast
OVCAR-5 ovarian = tested on: OVCAR-5 ovarian
EKVX NSCLC = tested on: EKVX NSCLC
T-47D breast = tested on: T-47D breast
PC-3 prostate = tested on: PC-3 prostate
RPMI-8226 leukemia = tested on: RPMI-8226 leukemia
NCI-H460 lung = tested on: NCI-H460 lung
HOP-92 NSCLC = tested on: HOP-92 NSCLC
MDA-MB-435 = tested on: MDA-MB-435
U251 CNS = tested on: U251 CNS
OVCAR-4 ovarian = tested on: OVCAR-4 ovarian
NCI-H23 lung = tested on: NCI-H23 lung
HS 578T breast = tested on: HS 578T breast
SK-MEL-2 melanoma = tested on: SK-MEL-2 melanoma
NCI-H226 lung = tested on: NCI-H226 lung
OVCAR-8 ovarian = tested on: OVCAR-8 ovarian
HCC-2998 colon = tested on: HCC-2998 colon
BT-549 breast = tested on: BT-549 breast
KM12 colon = tested on: KM12 colon
UO-31 renal = tested on: UO-31 renal
M14 melanoma = tested on: M14 melanoma
SF-539 CNS = tested on: SF-539 CNS
MCF7 breast = tested on: MCF7 breast
HCT-15 colon = tested on: HCT-15 colon
SW-620 colon = tested on: SW-620 colon
SK-MEL-28 melanoma = tested on: SK-MEL-28 melanoma
TK-10 renal = tested on: TK-10 renal
RXF 393 renal = tested on: RXF 393 renal
MALME-3M melanoma = tested on: MALME-3M melanoma
OVCAR-3 ovarian = tested on: OVCAR-3 ovarian
CCRF-CEM leukemia = tested on: CCRF-CEM leukemia
LOX IMVI melanoma = tested on: LOX IMVI melanoma

Cc1cn(C(CO)OC(CO)CN(O)C2C3CC4CC(C3)CC2C4)c(=O)[nH]c1=O (stereo not given)
TGI (DU-145 prostate): > 100 µM | TGI (SF-295 CNS): > 100 µM | TGI (MDA-N): > 100 µM | TGI (HT29 colon): > 100 µM | TGI (UACC-62 melanoma): > 100 µM | TGI (A498 renal): > 100 µM | TGI (UACC-257 melanoma): > 100 µM | TGI (SK-MEL-5 melanoma): > 100 µM | TGI (SNB-19 CNS): > 100 µM | TGI (K-562 leukemia): > 100 µM | TGI (HOP-62 NSCLC): > 100 µM | TGI (HCT-116 colon): > 100 µM | TGI (SNB-75 CNS): > 100 µM | TGI (CAKI-1 renal): > 100 µM | TGI (SR leukemia): > 100 µM | TGI (SK-OV-3 ovarian): > 100 µM | TGI (786-0 renal): > 100 µM | TGI (SN12C renal): > 100 µM | TGI (A549 NSCLC): > 100 µM | TGI (COLO 205 colon): > 100 µM | TGI (ACHN renal): > 100 µM | TGI (SF-268 CNS): > 100 µM | TGI (MOLT-4 leukemia): > 100 µM | TGI (HL-60(TB) leukemia): > 100 µM | TGI (IGROV1 ovarian): > 100 µM | TGI (MDA-MB-231 breast): > 100 µM | TGI (OVCAR-5 ovarian): > 100 µM | TGI (EKVX NSCLC): > 100 µM | TGI (T-47D breast): > 100 µM | TGI (PC-3 prostate): > 100 µM | TGI (RPMI-8226 leukemia): > 100 µM | TGI (NCI-H460 lung): > 100 µM | TGI (HOP-92 NSCLC): > 100 µM | TGI (MDA-MB-435): > 100 µM | TGI (U251 CNS): > 100 µM | TGI (OVCAR-4 ovarian): > 100 µM | TGI (NCI-H23 lung): > 100 µM | TGI (HS 578T breast): > 100 µM | TGI (SK-MEL-2 melanoma): > 100 µM | TGI (NCI-H226 lung): > 100 µM | TGI (OVCAR-8 ovarian): > 100 µM | TGI (HCC-2998 colon): > 100 µM | TGI (BT-549 breast): > 100 µM | TGI (KM12 colon): > 100 µM | TGI (UO-31 renal): > 100 µM | TGI (M14 melanoma): > 100 µM | TGI (SF-539 CNS): > 100 µM | TGI (MCF7 breast): > 100 µM | TGI (HCT-15 colon): > 100 µM | TGI (SW-620 colon): > 100 µM | TGI (SK-MEL-28 melanoma): > 100 µM | TGI (TK-10 renal): > 100 µM

CC(C)CC(C#CCCOC(=O)c1ccccc1)OC(=O)c1ccccc1 (stereo not given)
TGI (DU-145 prostate): > 10 µM | TGI (SF-295 CNS): > 10 µM | TGI (MDA-N): > 10 µM | TGI (HT29 colon): > 10 µM | TGI (UACC-62 melanoma): > 10 µM | TGI (A498 renal): > 10 µM | TGI (UACC-257 melanoma): > 10 µM | TGI (SK-MEL-5 melanoma): > 10 µM | TGI (RXF 393 renal): > 10 µM | TGI (SNB-19 CNS): > 10 µM | TGI (K-562 leukemia): > 10 µM | TGI (HOP-62 NSCLC): > 10 µM | TGI (HCT-116 colon): > 10 µM | TGI (SNB-75 CNS): > 10 µM | TGI (MALME-3M melanoma): > 10 µM | TGI (SR leukemia): > 10 µM | TGI (OVCAR-3 ovarian): > 10 µM | TGI (SK-OV-3 ovarian): > 10 µM | TGI (786-0 renal): > 10 µM | TGI (SN12C renal): > 10 µM | TGI (A549 NSCLC): > 10 µM | TGI (ACHN renal): > 10 µM | TGI (SF-268 CNS): > 10 µM | TGI (MOLT-4 leukemia): > 10 µM | TGI (HL-60(TB) leukemia): > 10 µM | TGI (IGROV1 ovarian): > 10 µM | TGI (MDA-MB-231 breast): > 10 µM | TGI (OVCAR-5 ovarian): > 10 µM | TGI (EKVX NSCLC): > 10 µM | TGI (T-47D breast): > 10 µM | TGI (CCRF-CEM leukemia): > 10 µM | TGI (PC-3 prostate): > 10 µM | TGI (NCI-H460 lung): > 10 µM | TGI (HOP-92 NSCLC): > 10 µM | TGI (MDA-MB-435): > 10 µM | TGI (U251 CNS): > 10 µM | TGI (NCI-H23 lung): > 10 µM | TGI (HS 578T breast): > 10 µM | TGI (SK-MEL-2 melanoma): > 10 µM | TGI (NCI-H226 lung): > 10 µM | TGI (OVCAR-8 ovarian): > 10 µM | TGI (HCC-2998 colon): > 10 µM | TGI (BT-549 breast): > 10 µM | TGI (KM12 colon): > 10 µM | TGI (LOX IMVI melanoma): > 10 µM | TGI (UO-31 renal): > 10 µM | TGI (M14 melanoma): > 10 µM | TGI (SF-539 CNS): > 10 µM | TGI (MCF7 breast): > 10 µM | TGI (HCT-15 colon): > 10 µM | TGI (SW-620 colon): > 10 µM | TGI (SK-MEL-28 melanoma): > 10 µM | TGI (TK-10 renal): > 10 µM
